Experimental data published in patent publication US20070213303A1, “Methods for reducing platelet activation and for the treatment of thrombotic events” (priority 2005, published 2007).

Tests used:
Type in all cases: cell-based, human
[1] = system: vitronectin receptor (CD51/CD61); experiment: Flow cytometry, platelet surface expression of CD51/61
Procedure: (§1) Venous blood (8 ml) is collected in a plastic tube containing 2 ml of acid-citrate-dextrose (ACD) (7.3 g citric acid, 22.0 g sodium citrate.2H2O and 24.5 glucose in 1000 ml distilled water) and mixed well. The blood-ACD mixture is centrifuged at 1000 r.p.m. for 10 minutes at room temperature. The upper ⅔ of the platelet-rich plasma (PRP) is then collected and adjusted to pH=6.5 by adding ACD. The PRP is then centrifuged at 3000 r.p.m. for 10 minutes. The supernatant is removed and the platelet pellet is gently resuspended in 4 cc of the washing buffer (10 mM Tris/HCl, 0.15 M NaCl, 20 mM EDTA, pH=7.4). Platelets are washed in the washing buffer, and in TBS (10 mM Tris, 0.15 M NaCl, pH=7.4). All cells are then divided into the appropriate number of tubes. By way of example, if 9 different surface markers are evaluated, as described herein, then the cells should be divided into ten tubes, such that nine tubes containing washed platelets are incubated with 5 μl fluorescein isothiocyanate (FITC)-conjugated antibodies in the dark at +4° C. for 30 minutes, and one tube remains unstained and serves as a negative control. Surface antigen expression is measured with monoclonal murine anti-human antibodies, such as CD9 (p24); CD41a (IIb/IIIa, aIIbb3); CD42b (Ib); CD61(IIIa) (DAKO Corporation, Carpinteria, Calif.); CD49b (VLA-2, or a2b1); CD62p (P-selectin); CD31 (PECAM-1); CD 41b (IIb); and CD51/CD61 (vitronectin receptor, avb3) (PharMingen, San Diego Calif.), as the expression of these antigens on the cells is associated with platelet activation. After incubation, the cells are washed with TBS and resuspended in 0.25 ml of 1% paraformaldehyde. Samples are stored in the refrigerator at +4° C., and analyzed on a Becton Dickinson FACScan flow cytometer with laser output of 15 mw, excitation at 488 nm, and emission detection at 530±30 nm. The data can be collected and stored in list mode, and then analyzed using CELLQuest® software. FACS procedures are described in detail in, e.g., Gurbel, P. A. et al., J Amer Coll Cardiol 31: 1466-1473 (1998); Serebruany, V. L. et al., Am Heart J 136: 398-405 (1998); Gurbel, P. A. et al., Coron Artery Dis 9: 451-456 (1998) and Serebruany, V. L. et al., Arterioscl Thromb Vasc Biol 19: 153-158 (1999).
(§2) Four cc of blood is collected in a tube, containing 2 cc of acid-citrate-dextrose (ACD; 7.3 g citric acid, 22.0 g sodium citrate.2H2O and 24.5 glucose in 1000 ml distilled water) and mixed well. The buffer, TBS (10 mM Tris, 0.15 M NaCl, pH 7.4) and the following fluorescein isothiocyanate (FITC) conjugated monoclonal antibodies (PharMingen, San Diego, Calif., USA, and DAKO, Calif., USA) are removed from a refrigerator and allowed to warm at room temperature (RT) prior to their use. The non-limiting examples of antibodies that can be used include CD41 (IIb/IIIa), CD31 (PECAM-1), CD62p (P-selectin), and CD51/61 (Vitronectin receptor). For each subject, six amber tubes (1.25 ml) are one Eppendorf tube (1.5 ml) are obtained and marked appropriately 450 μl of TBS buffer is pipetted to the labeled Eppendorf tube. A patient's whole blood tube is inverted gently twice to mix, and 50 μl of whole blood is pipetted to the appropriately labeled Eppendorf tube. The Eppendorf tube is capped and the diluted whole blood is mixed by inverting the Eppendorf tube gently two times, followed by pipetting 50 μl of diluted whole blood to each amber tube. […] The samples are analyzed on a Becton Dickinson FACScan flow cytometer. […]

PAC-1 = experiment: Flow cytometry, activity with PAC-1 antibody
Procedure: as §1, §2

[2] = system: platelet-monocyte microparticles (CD14+CD151); experiment: Flow cytometry, formation of platelet-monocyte microparticles
Procedure: as §1, §2

LAMP-3 (CD63) = experiment: Flow cytometry, platelet surface expression of CD63
Procedure: as §1, §2

PECAM-1 (CD31) = experiment: Flow cytometry, platelet surface expression of CD31
Procedure: as §1, §2

PAR-1 (SPAN-12) = experiment: Flow cytometry, PAR-1 thrombin receptor expression (SPAN-12)
Procedure: as §1, §2

LAMP-1 (CD107a) = experiment: Flow cytometry, platelet surface expression of CD107a
Procedure: as §1, §2

GP37 (CD165) = experiment: Flow cytometry, platelet surface expression of CD165
Procedure: as §1, §2

GP Ib (CD42b) = experiment: Flow cytometry, platelet surface expression of CD42b
Procedure: as §1, §2

thrombospondin (CD36) = experiment: Flow cytometry, platelet surface expression of thrombospondin
Procedure: as §1, §2

In the case of CC(C)(Sc1cc(C(C)(C)C)c(O)c(C(C)(C)C)c1)Sc1cc(C(C)(C)C)c(OC(=O)CCC(=O)O)c(C(C)(C)C)c1 [Compound A], the “vitronectin receptor (CD51/CD61)” value [1] is reported as “little or no effect”, the “Flow cytometry CD51/61” value ([1]; preincubation 15 μg/mL) is reported as 10.9 ± 2.1 and the “Flow cytometry CD51/61” value ([1]; preincubation 30 μg/mL) is reported as 11.4 ± 1.6. For the same compound, the “Flow cytometry CD51/61” value ([1]; preincubation 60 μg/mL) was 11.8 ± 2.1, the “Flow cytometry CD51/61” value ([1]; preincubation 90 μg/mL) was 10.2 ± 1.7 and the “Flow cytometry PAC-1” value (PAC-1; preincubation 15 μg/mL) was 11.4 ± 1.1. The “Flow cytometry PAC-1” value (PAC-1; preincubation 30 μg/mL) was 11.2 ± 1.4, the “Flow cytometry PAC-1” value (PAC-1; preincubation 60 μg/mL) was 10.9 ± 2.2 and the “Flow cytometry PAC-1” value (PAC-1; preincubation 90 μg/mL) was 10.3 ± 1.8. The “GP IIb/IIIa activity with PAC-1 antibody” value (PAC-1; pretreated samples) was “decreased”, the “Flow cytometry CD151 + 14” value ([2]; preincubation 15 μg/mL) was 131.4 ± 11.8 and the “Flow cytometry CD151 + 14” value ([2]; preincubation 30 μg/mL) was 107.6 ± 15.4. For the same compound, the “Flow cytometry CD151 + 14” value ([2]; preincubation 60 μg/mL) was 98.7 ± 12.9, the “Flow cytometry CD151 + 14” value ([2]; preincubation 90 μg/mL) was 97.9 ± 10.8 and the “Formation of platelet-monocyte microparticles (CD14+CD151)” value ([2]; pretreated samples) was “reduced”. The “LAMP-3 (CD63)” value (LAMP-3 (CD63)) was “little or no effect”, the “Flow cytometry CD63” value (LAMP-3 (CD63); preincubation 15 μg/mL) was 7.0 ± 1.4 and the “Flow cytometry CD63” value (LAMP-3 (CD63); preincubation 30 μg/mL) was 7.4 ± 1.4. The “Flow cytometry CD63” value (LAMP-3 (CD63); preincubation 60 μg/mL) was 6.8 ± 1.5, the “Flow cytometry CD63” value (LAMP-3 (CD63); preincubation 90 μg/mL) was 6.7 ± 1.4 and the “Flow cytometry CD31” value (PECAM-1 (CD31); preincubation 15 μg/mL) was 58.4 ± 5.7. The “Flow cytometry CD31” value (PECAM-1 (CD31); preincubation 30 μg/mL) was 57.8 ± 6.5, the “Flow cytometry CD31” value (PECAM-1 (CD31); preincubation 60 μg/mL) was 55.8 ± 7.1 and the “Flow cytometry CD31” value (PECAM-1 (CD31); preincubation 90 μg/mL) was 50.9 ± 8.9. For the same compound, the “Surface platelet expression of PECAM-1 (CD31)” value (PECAM-1 (CD31); pretreated samples) was “decreased”, the “Flow cytometry PAR-1 (SPAN-12)” value (PAR-1 (SPAN-12); preincubation 15 μg/mL) was 25.0 ± 4.2 and the “Flow cytometry PAR-1 (SPAN-12)” value (PAR-1 (SPAN-12); preincubation 30 μg/mL) was 23.9 ± 3.8. For the same compound, the “Flow cytometry PAR-1 (SPAN-12)” value (PAR-1 (SPAN-12); preincubation 60 μg/mL) was 24.4 ± 2.8, the “Flow cytometry PAR-1 (SPAN-12)” value (PAR-1 (SPAN-12); preincubation 90 μg/mL) was 19.4 ± 3.5 and the “PAR-1 thrombin receptor expression, intact epitope” value (PAR-1 (SPAN-12); pretreated samples) was “reduced”. The “LAMP-1 (CD107a)” value (LAMP-1 (CD107a)) was “little or no effect”, the “Flow cytometry CD107a” value (LAMP-1 (CD107a); preincubation 15 μg/mL) was 6.7 ± 1.5 and the “Flow cytometry CD107a” value (LAMP-1 (CD107a); preincubation 30 μg/mL) was 6.4 ± 1.4. For the same compound, the “Flow cytometry CD107a” value (LAMP-1 (CD107a); preincubation 60 μg/mL) was 6.1 ± 1.5, the “Flow cytometry CD107a” value (LAMP-1 (CD107a); preincubation 90 μg/mL) was 6.4 ± 1.6 and the “GP37 (CD165)” value (GP37 (CD165)) was “little or no effect”. The “Flow cytometry CD165” value (GP37 (CD165); preincubation 15 μg/mL) was 26.9 ± 2.7, the “Flow cytometry CD165” value (GP37 (CD165); preincubation 30 μg/mL) was 24.7 ± 2.7 and the “Flow cytometry CD165” value (GP37 (CD165); preincubation 60 μg/mL) was 26.4 ± 3.7. The “Flow cytometry CD165” value (GP37 (CD165); preincubation 90 μg/mL) was 25.5 ± 3.2, the “Flow cytometry CD42b” value (GP Ib (CD42b); preincubation 15 μg/mL) was 151.6 ± 11.2 and the “Flow cytometry CD42b” value (GP Ib (CD42b); preincubation 30 μg/mL) was 142.8 ± 11.4. For the same compound, the “Flow cytometry CD42b” value (GP Ib (CD42b); preincubation 60 μg/mL) was 137.7 ± 8.9, the “Flow cytometry CD42b” value (GP Ib (CD42b); preincubation 90 μg/mL) was 111.2 ± 11.2 and the “Surface platelet expression of GP Ib (CD42b)” value (GP Ib (CD42b); pretreated samples) was “decreased”. The “thrombospondin (CD36)” value (thrombospondin (CD36)) was “little or no effect”, the “Flow cytometry Thrombospondin” value (thrombospondin (CD36); preincubation 15 μg/mL) was 10.1 ± 1.9 and the “Flow cytometry Thrombospondin” value (thrombospondin (CD36); preincubation 30 μg/mL) was 11.0 ± 2.3. For the same compound, the “Flow cytometry Thrombospondin” value (thrombospondin (CD36); preincubation 60 μg/mL) was 10.3 ± 1.9 and the “Flow cytometry Thrombospondin” value (thrombospondin (CD36); preincubation 90 μg/mL) was 9.6 ± 2.0.
